Measurements published in patent US20250019339A1, “SOLVENT COMPOUNDS FOR USE AS REPLACEMENTS FOR SLOW EVAPORATING SOLVENTS” (TBF ENVIRONMENTAL TECHNOLOGY INC., priority 2018, published 2025).

Columns and labels:
Assay type in all cases: physicochemical
[1] = Boiling point
[2] = Vapour pressure; conditions: @25° C.
[3] = Sustained combustion tests
Procedure: (§1) (420.8° F.) • Flash Point: 85.5° C.

[4] = Kauri-Butanol value
[5] = Flash point, PMCC closed cup; conditions: PMCC (Penske Martin Closed Cup)
Procedure: as §1

[6] = Specific gravity
[7] = Evaporation rate

Boiling Point [1]: 216 °C
Vapour pressure [2]: 0.09 mm Hg
Sustained combustion [3]: did not sustain combustion
Kauri-Butanol Value [4]: 77.5
Flash Point [5]: 85.5 °C
Specific Gravity [6]: 0.916
Evaporation rate [7]: 0.04
SMILES: CCCCC(CC)COC(=O)OC (stereo not shown) [BibaSol, 2-ethylhexyl methyl carbonate]
